Reference: patent US9290511B2, “Thieno-pyrimidines, useful as potassium channel inhibitors” (XENTION LIMITED, priority 2011, dated 2016)

The compounds below were run against T1, Kir3.1/3.4 (Rattus norvegicus, UniProt P48548+P63251) (assay: Kir3.1/3.4 Q-patch Method (automated patch clamp, Sophion Q-patch)). Conditions: HEK293 cells stably-expressing Kir3.1/3.4; current at -120 mV; QPatch-16 or QPatch-48.
T1 construct: expressed in transfected cells
T1 sequence (P63251 1-501): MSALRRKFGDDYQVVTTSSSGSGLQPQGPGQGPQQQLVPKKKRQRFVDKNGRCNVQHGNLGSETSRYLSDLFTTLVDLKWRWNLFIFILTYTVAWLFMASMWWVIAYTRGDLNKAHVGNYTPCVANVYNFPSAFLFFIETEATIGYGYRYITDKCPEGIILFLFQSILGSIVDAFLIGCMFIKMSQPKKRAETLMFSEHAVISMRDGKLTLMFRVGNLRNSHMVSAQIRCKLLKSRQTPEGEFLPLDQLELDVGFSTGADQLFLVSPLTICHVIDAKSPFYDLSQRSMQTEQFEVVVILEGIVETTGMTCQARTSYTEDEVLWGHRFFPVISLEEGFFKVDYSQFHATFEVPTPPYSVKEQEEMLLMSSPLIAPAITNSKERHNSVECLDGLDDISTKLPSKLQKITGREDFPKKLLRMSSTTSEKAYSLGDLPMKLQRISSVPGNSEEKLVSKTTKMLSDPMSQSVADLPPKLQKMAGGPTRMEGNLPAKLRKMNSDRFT
T1 sequence (P48548 1-419): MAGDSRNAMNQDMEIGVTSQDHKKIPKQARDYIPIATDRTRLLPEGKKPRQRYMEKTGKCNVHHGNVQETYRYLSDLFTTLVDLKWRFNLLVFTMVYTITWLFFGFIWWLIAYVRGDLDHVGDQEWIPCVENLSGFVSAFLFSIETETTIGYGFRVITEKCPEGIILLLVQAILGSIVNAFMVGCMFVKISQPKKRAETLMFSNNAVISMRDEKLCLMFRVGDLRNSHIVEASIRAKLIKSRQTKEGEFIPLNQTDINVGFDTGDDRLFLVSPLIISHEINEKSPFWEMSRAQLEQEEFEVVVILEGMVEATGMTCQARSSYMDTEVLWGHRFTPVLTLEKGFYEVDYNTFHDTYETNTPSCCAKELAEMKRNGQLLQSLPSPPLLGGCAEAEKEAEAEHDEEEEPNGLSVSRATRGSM
Format: cell-based
Procedure: For automated patch-clamp studies using the Sophion Q-patch, accumulative concentration-responses experiments were conducted to determine compound activity against the ion channel target. Voltage-clamp experiments were performed using HEK293 cells stably-expressing Kir3.1/3.4 using either a QPatch-16 or QPatch-48 (Sophion Bioscience A/S). A voltage waveform (VHold−20 mV, step to 60 mV for 100 ms, ramp to −120 mV over 500 ms, hold at −120 mV for 100 ms before returning to VHold) was repeatedly applied to the cells under voltage-clamp at a frequency of 0.1 Hz to elicit Kir3.1/3.4 currents. Mean current at −120 mV was measured in the absence (Icontrol) and presence of drug (IDrug). Assessment of passive leak was performed by removal of external potassium (IZero). Leak current was subtracted from control and drug recordings. Current inhibition (%) was calculated as {1−[(IDrug−IZero)/(IControl−IZero)]}*100. Data were fitted with a sigmoidal function to yield an IC50 and Hill coefficient. Composition of external experimental buffer was (in mM): 40 NaCl, 100 KCl, 5 CaCl2, 1 MgCl2, 10 HEPES pH 7.4. Composition of internal solution was (in mM). 40 K-gluconate, 60 KF, 20 NaCl, 5 Mg-ATP, 0.9 GTPgS, 20 EGTA, pH 7.2. Compounds were formulated in DMSO and diluted in buffer to give a final drug concentration of between […] and a final DMSO concentration of 0.1-0.3%.

| Structure (SMILES) | IC50 [nM] |
| --- | --- |
| COc1ccccc1-c1csc2nc(N3CCC(O)C3)nc(N3C4CCC3COC4)c12 (stereo not drawn) [Example 404, 1-[5-(2-methoxyphenyl)-4-(3-oxa-8-azabicyclo[3.2.1]octan-8-yl)thieno[2,3-d]pyrimidin-2-yl]pyrrolidin-3-ol] | < 500 |
| COc1ccccc1-c1csc2nc(C#N)nc(N3C4CCC3CC(OC)C4)c12 (stereo not drawn) [Example 405, 4-(3-methoxy-8-azabicyclo[3.2.1]octan-8-yl)-5-(2-methoxyphenyl)thieno[2,3-d]pyrimidine-2-carbonitrile] | 500 to 3000 |
| COCC1CC2CCC(C1)N2c1nc(C#N)nc2scc(-c3ccccc3OC)c12 (stereo not drawn) [Example 406, 4-[3-(methoxymethyl)-8-azabicyclo[3.2.1]octan-8-yl]-5-(2-methoxyphenyl)thieno[2,3-d]pyrimidine-2-carbonitrile] | < 500 |
| COc1ccccc1-c1csc2nc(N3C4CCC3CC(OC)C4)nc(N3C4CCC3CC(OC)C4)c12 (stereo not drawn) [Example 407, 2,4-bis(3-methoxy-8-azabicyclo[3.2.1]octan-8-yl)-5-(2-methoxyphenyl)thieno[2,3-d]pyrimidine] | 500 to 3000 |
| COC1CC2CCC(C1)N2c1nc(N2CCOC(C(N)=O)C2)nc2scc(-c3ccccc3Cl)c12 (stereo not drawn) [Example 408, 4-[5-(2-chlorophenyl)-4-(3-methoxy-8-azabicyclo[3.2.1]octan-8-yl)thieno[2,3-d]pyrimidin-2-yl]morpholine-2-carboxamide] | < 500 |
| COc1ccccc1-c1csc2nc(N3CCOC(C(N)=O)C3)nc(N3C4CCC3CC(OC)C4)c12 (stereo not drawn) [Example 409, 4-[4-(3-methoxy-8-azabicyclo[3.2.1]octan-8-yl)-5-(2-methoxyphenyl)thieno[2,3-d]pyrimidin-2-yl]morpholine-2-carboxamide] | 500 to 3000 |
| NC(=O)C1CCCN(c2nc(N3C4CCC3COC4)c3c(-c4ccccc4Cl)csc3n2)C1 (stereo not drawn) [Example 410, 1-[5-(2-chlorophenyl)-4-(3-oxa-8-azabicyclo[3.2.1]octan-8-yl)thieno[2,3-d]pyrimidin-2-yl]piperidine-3-carboxamide] | 500 to 3000 |
| NC(=O)C1CCCN(c2nc(N3C4CCC3COC4)nc3scc(-c4ccccc4Cl)c23)C1 (stereo not drawn) [Example 411, 1-[5-(2-chlorophenyl)-2-(3-oxa-8-azabicyclo[3.2.1]octan-8-yl)thieno[2,3-d]pyrimidin-4-yl]piperidine-3-carboxamide] | 500 to 3000 |
| NC(=O)C1CCN(c2nc(N3C4CCC3CC(O)C4)nc3scc(-c4ccccc4Cl)c23)C1 (stereo not drawn) [Example 412, 1-[5-(2-chlorophenyl)-2-(3-hydroxy-8-azabicyclo[3.2.1]octan-8-yl)thieno[2,3-d]pyrimidin-4-yl]pyrrolidine-3-carboxamide] | 500 to 3000 |
| COc1ccccc1-c1csc2nc(N3C4CCC3CC(CO)C4)nc(N3CCNC(=O)C3)c12 (stereo not drawn) [Example 413, 4-[2-[3-(hydroxymethyl)-8-azabicyclo[3.2.1]octan-8-yl]-5-(2-methoxyphenyl)thieno[2,3-d]pyrimidin-4-yl]piperazin-2-one] | < 500 |
| COc1ccccc1-c1csc2nc(N3C4CCC3CC(O)C4)nc(N3CCC(C(N)=O)C3)c12 (stereo not drawn) [Example 414, 1-[2-(3-hydroxy-8-azabicyclo[3.2.1]octan-8-yl)-5-(2-methoxyphenyl)thieno[2,3-d]pyrimidin-4-yl]pyrrolidine-3-carboxamide] | 500 to 3000 |
| NC(=O)C1CCN(c2nc(N3C4CCC3COC4)nc3scc(-c4ccccc4Cl)c23)C1 (stereo not drawn) [Example 415, 1-[5-(2-chlorophenyl)-2-(3-oxa-8-azabicyclo[3.2.1]octan-8-yl)thieno[2,3-d]pyrimidin-4-yl]pyrrolidine-3-carboxamide] | 500 to 3000 |
| NC(=O)C1CN(c2nc(N3C4CCC3COC4)c3c(-c4ccccc4Cl)csc3n2)CCN1 (stereo not drawn) [Example 416, 4-[5-(2-chlorophenyl)-4-(3-oxa-8-azabicyclo[3.2.1]octan-8-yl)thieno[2,3-d]pyrimidin-2-yl]piperazine-2-carboxamide] | < 500 |
| NC(=O)C1CN(c2nc(N3C4CCC3COC4)nc3scc(-c4ccccc4Cl)c23)CCN1 (stereo not drawn) [Example 417, 4-[5-(2-chlorophenyl)-2-(3-oxa-8-azabicyclo[3.2.1]octan-8-yl)thieno[2,3-d]pyrimidin-4-yl]piperazine-2-carboxamide] | 500 to 3000 |
| COc1ccccc1-c1csc2nc(N3CCOC(C(N)=O)C3)nc(N3C4CCC3COC4)c12 (stereo not drawn) [Example 418, 4-[5-(2-methoxyphenyl)-4-(3-oxa-8-azabicyclo[3.2.1]octan-8-yl)thieno[2,3-d]pyrimidin-2-yl]morpholine-2-carboxamide] | 500 to 3000 |
| COc1ccccc1-c1csc2nc(N3C4CCC3COC4)nc(N3CCOC(C(N)=O)C3)c12 (stereo not drawn) [Example 419, 4-[5-(2-methoxyphenyl)-2-(3-oxa-8-azabicyclo[3.2.1]octan-8-yl)thieno[2,3-d]pyrimidin-4-yl]morpholine-2-carboxamide] | < 500 |
| NC(=O)C1CN(c2nc(N3C4CCC3COC4)c3c(-c4ccccc4Cl)csc3n2)CCO1 (stereo not drawn) [Example 420, 4-[5-(2-chlorophenyl)-4-(3-oxa-8-azabicyclo[3.2.1]octan-8-yl)thieno[2,3-d]pyrimidin-2-yl]morpholine-2-carboxamide] | < 500 |
| OC1CC2CCC(C1)N2c1nc(N2C3CCC2COC3)c2c(-c3ccccc3Cl)csc2n1 (stereo not drawn) [Example 421, 8-[5-(2-chlorophenyl)-4-(3-oxa-8-azabicyclo[3.2.1]octan-8-yl)thieno[2,3-d]pyrimidin-2-yl]-8-azabicyclo[3.2.1]octan-3-ol] | < 500 |
| NC(=O)C1CCN(c2nc(N3C4CCC3COC4)c3c(-c4ccccc4Cl)csc3n2)C1 (stereo not drawn) [Example 422, 1-[5-(2-chlorophenyl)-4-(3-oxa-8-azabicyclo[3.2.1]octan-8-yl)thieno[2,3-d]pyrimidin-2-yl]pyrrolidine-3-carboxamide] | 500 to 3000 |
| Clc1ccccc1-c1csc2nc(N3C4CCC3COC4)nc(N3C4CCC3COC4)c12 [Example 423, 8-[5-(2-chlorophenyl)-2-(3-oxa-8-azabicyclo[3.2.1]octan-8-yl)thieno[2,3-d]pyrimidin-4-yl]-3-oxa-8-azabicyclo[3.2.1]octane] | 500 to 3000 |
| O=C1CN(c2nc(N3C4CCC3COC4)c3c(-c4ccccc4Cl)csc3n2)CCN1 [Example 424, 4-[5-(2-chlorophenyl)-4-(3-oxa-8-azabicyclo[3.2.1]octan-8-yl)thieno[2,3-d]pyrimidin-2-yl]piperazin-2-one] | < 500 |
| Clc1ccccc1-c1csc2nc(N3CCOCC3)nc(N3C4CCC3COC4)c12 [Example 425, 8-[5-(2-chlorophenyl)-2-morpholino-thieno[2,3-d]pyrimidin-4-yl]-3-oxa-8-azabicyclo[3.2.1]octane] | < 500 |
| OC1CCN(c2nc(N3C4CCC3COC4)c3c(-c4ccccc4Cl)csc3n2)C1 (stereo not drawn) [Example 426, 1-[5-(2-chlorophenyl)-4-(3-oxa-8-azabicyclo[3.2.1]octan-8-yl)thieno[2,3-d]pyrimidin-2-yl]pyrrolidin-3-ol] | < 500 |
| COc1ncccc1-c1csc2ncnc(N3C4CCC3CC(CNC3CCC3)C4)c12 (stereo not drawn) [Example 427, N-[[8-[5-(2-methoxy-3-pyridyl)thieno[2,3-d]pyrimidin-4-yl]-8-azabicyclo[3.2.1]octan-3-yl]methyl]cyclobutanamine] | < 500 |
